pIC50: −log10 of the molar value. Bridge positions count the residues as written; N and C are the ends. Square brackets hold non-standard residues; d marks the D form. Peptide text beside a SMILES is read from it. Nle = CCCC[C@H](N)C(=O)O
These molecules were tested against T1, human Kv1.3 voltage-gated K+ channel (Homo sapiens, UniProt P22001) (assay: cell-based). Conditions: inhibition of thallium flux, CHO-DUKX cells with human Kv1.3; read-out: IC50.
T1 construct: host or cells: CHO-DUKX
T1 sequence (P22001 whole entry): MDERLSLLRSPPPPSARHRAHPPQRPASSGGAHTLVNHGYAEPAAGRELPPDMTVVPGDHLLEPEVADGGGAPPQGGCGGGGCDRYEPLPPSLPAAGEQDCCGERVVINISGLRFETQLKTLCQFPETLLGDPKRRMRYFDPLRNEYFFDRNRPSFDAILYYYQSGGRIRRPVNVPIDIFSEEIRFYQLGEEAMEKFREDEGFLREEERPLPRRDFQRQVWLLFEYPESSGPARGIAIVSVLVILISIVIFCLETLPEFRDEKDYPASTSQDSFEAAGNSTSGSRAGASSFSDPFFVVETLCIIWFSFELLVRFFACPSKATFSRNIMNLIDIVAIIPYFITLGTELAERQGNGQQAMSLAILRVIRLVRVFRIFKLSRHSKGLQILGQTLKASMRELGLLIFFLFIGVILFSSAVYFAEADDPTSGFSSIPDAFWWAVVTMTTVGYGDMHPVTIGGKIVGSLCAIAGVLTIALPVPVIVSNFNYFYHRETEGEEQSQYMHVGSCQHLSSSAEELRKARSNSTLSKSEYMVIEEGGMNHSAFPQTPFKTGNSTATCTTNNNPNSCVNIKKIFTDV
In the case of `CC[C@H](C)[C@@H]1NC(=O)[C@H](C)NC(=O)[C@H](CCCCN)NC(=O)[C@H](CC(C)C)NC(=O)[C@@H]2CSSC[C@@H](C(=O)N[C@@H](Cc3ccc(O)cc3)C(=O)N3CCC[C@H]3C(=O)N[C@@H](CCCNC(=N)N)C(=O)O)NC(=O)[C@H](CCCCN)NC(=O)[C@@H]3CSSC[C@H](NC(=O)[C@H](CCC(=O)O)NC(=O)[C@H](C(C)C)NC(=O)[C@H](CO)NC(=O)[C@H](C)NC(=O)[C@H](CO)NC(=O)[C@@H](NC(=O)[C@H](CCCNC(=N)N)NC(=O)[C@H](CCSC)NC(=O)[C@H](CC(=O)O)NC(=O)[C@H](CCSC)NC(=O)[C@@H](N)CC(N)=O)CSSC[C@H](NC(=O)[C@H](CCCCN)NC(=O)CNC(=O)[C@H](Cc4ccccc4)NC(=O)CNC(=O)[C@H](CCCNC(=N)N)NC(=O)CNC1=O)C(=O)N[C@@H](CCSC)C(=O)N[C@@H](CC(N)=O)C(=O)N[C@@H](CCCCN)C(=O)N[C@@H](CCCCN)C(=O)N3)C(=O)N[C@@H](CCCCN)C(=O)N[C@@H](CCC(N)=O)C(=O)N[C@@H](CCCCN)C(=O)N2` [Compound 4] (H-NMDMRCSASVECKQKCLKAIGRGFGKCMNKKCKCYPR-OH; disulfide 6-27, 12-32, 16-34), the pIC50 was 9.54. `CC[C@H](C)[C@@H]1NC(=O)[C@H](C)NC(=O)[C@H](CCCCN)NC(=O)[C@H](CC(C)C)NC(=O)[C@@H]2CSSC[C@@H](C(=O)N[C@@H](Cc3ccc(O)cc3)C(=O)N3CCC[C@H]3C(=O)N[C@@H](CCCNC(=N)N)C(=O)O)NC(=O)[C@H](CCCCN)NC(=O)[C@@H]3CSSC[C@H](NC(=O)[C@H](CCC(=O)O)NC(=O)[C@H](C(C)C)NC(=O)[C@H](CO)NC(=O)[C@H](C)NC(=O)[C@H](CO)NC(=O)[C@@H](NC(=O)[C@H](CCCNC(=N)N)NC(=O)[C@H](CCSC)NC(=O)[C@@H](N)CC(=O)O)CSSC[C@H](NC(=O)[C@H](CCCCN)NC(=O)CNC(=O)[C@H](Cc4ccccc4)NC(=O)[C@H]([C@@H](C)CC)NC(=O)[C@H](CO)NC(=O)CNC1=O)C(=O)N[C@@H](CCSC)C(=O)N[C@@H](CC(N)=O)C(=O)N[C@@H](CCCCN)C(=O)N[C@@H](CCCCN)C(=O)N3)C(=O)N[C@@H](CCCCN)C(=O)N[C@@H](CCC(N)=O)C(=O)N[C@@H](CCCCN)C(=O)N2` [Compound 6] (H-DMRCSASVECKQKCLKAIGSIFGKCMNKKCKCYPR-OH; disulfide 4-25, 10-30, 14-32) was tested, and the pIC50 was 9.47. In the case of `CC[C@H](C)[C@@H]1NC(=O)[C@H](C)NC(=O)[C@H](CCCCN)NC(=O)[C@H](CC(C)C)NC(=O)[C@@H]2CSSC[C@@H](C(=O)N[C@@H](Cc3ccc(O)cc3)C(=O)N3CCC[C@H]3C(=O)N[C@@H](CCCNC(=N)N)C(N)=O)NC(=O)[C@H](CCCCN)NC(=O)[C@@H]3CSSC[C@H](NC(=O)[C@H](CCC(=O)O)NC(=O)[C@H](C(C)C)NC(=O)[C@H](CO)NC(=O)[C@H](C)NC(=O)[C@H](CO)NC(=O)[C@@H](NC(=O)[C@H](CCCNC(=N)N)NC(=O)[C@H](CCSC)NC(=O)[C@H](CC(=O)O)NC(=O)[C@H](CCSC)NC(=O)[C@@H](N)CC(N)=O)CSSC[C@H](NC(=O)[C@H](CCCCN)NC(=O)CNC(=O)[C@H](Cc4ccccc4)NC(=O)[C@H]([C@@H](C)CC)NC(=O)[C@H](CO)NC(=O)CNC1=O)C(=O)N[C@@H](CCSC)C(=O)N[C@@H](CC(N)=O)C(=O)N[C@@H](CCCCN)C(=O)N[C@@H](CCCCN)C(=O)N3)C(=O)N[C@@H](CCCCN)C(=O)N[C@@H](CCC(N)=O)C(=O)N[C@@H](CCCCN)C(=O)N2` [Compound 7] (H-NMDMRCSASVECKQKCLKAIGSIFGKCMNKKCKCYPR-NH2; disulfide 6-27, 12-32, 16-34), the pIC50 was 9.92. `CC[C@H](C)[C@@H]1NC(=O)[C@H](C)NC(=O)[C@H](CCCCN)NC(=O)[C@H](CC(C)C)NC(=O)[C@@H]2CSSC[C@@H](C(=O)N[C@@H](Cc3ccc(O)cc3)C(=O)N3CCC[C@H]3C(=O)N[C@@H](CCCNC(=N)N)C(=O)O)NC(=O)[C@H](CCCCN)NC(=O)[C@@H]3CSSC[C@H](NC(=O)[C@H](CCC(=O)O)NC(=O)[C@H](C(C)C)NC(=O)[C@H](CO)NC(=O)[C@H](C)NC(=O)[C@H](CO)NC(=O)[C@@H](NC(=O)[C@H](CCCNC(=N)N)NC(=O)[C@@H](NC(=O)[C@H](CC(=O)O)NC(=O)[C@H](CCSC)NC(=O)[C@@H](N)CC(N)=O)C(C)C)CSSC[C@H](NC(=O)[C@H](CCCCN)NC(=O)CNC(=O)[C@H](Cc4ccccc4)NC(=O)[C@H]([C@@H](C)CC)NC(=O)[C@H](CO)NC(=O)CNC1=O)C(=O)N[C@@H](CCSC)C(=O)N[C@@H](CC(N)=O)C(=O)N[C@@H](CCCCN)C(=O)N[C@@H](CCCCN)C(=O)N3)C(=O)N[C@@H](CCCCN)C(=O)N[C@@H](CCC(N)=O)C(=O)N[C@@H](CCCCN)C(=O)N2` [Compound 9] (H-NMDVRCSASVECKQKCLKAIGSIFGKCMNKKCKCYPR-OH; disulfide 6-27, 12-32, 16-34) showed a pIC50 of 9.28. Work on `CC[C@H](C)[C@@H]1NC(=O)[C@H](C)NC(=O)[C@H](CC(=O)O)NC(=O)[C@H](CCCCN)NC(=O)[C@@H]2CSSC[C@@H](C(=O)N[C@@H](Cc3ccc(O)cc3)C(=O)N3CCC[C@H]3C(=O)N[C@@H](CCCNC(=N)N)C(=O)O)NC(=O)[C@H](CCCCN)NC(=O)[C@@H]3CSSC[C@H](NC(=O)[C@H](CCC(=O)O)NC(=O)[C@H](C(C)C)NC(=O)[C@H](CO)NC(=O)[C@H](C)NC(=O)[C@H](CO)NC(=O)[C@@H](NC(=O)[C@H](CCCNC(=N)N)NC(=O)[C@H](CCSC)NC(=O)[C@H](CC(=O)O)NC(=O)[C@H](CCSC)NC(=O)[C@@H](N)CC(N)=O)CSSC[C@H](NC(=O)[C@H](CCCCN)NC(=O)CNC(=O)[C@H](Cc4ccccc4)NC(=O)[C@H]([C@@H](C)CC)NC(=O)[C@H](CO)NC(=O)CNC1=O)C(=O)N[C@@H](CCSC)C(=O)N[C@@H](CC(N)=O)C(=O)N[C@@H](CCCCN)C(=O)N[C@@H](CCCCN)C(=O)N3)C(=O)N[C@@H](CCCCN)C(=O)N[C@@H](CCC(N)=O)C(=O)N[C@@H](CCCCN)C(=O)N2` [Compound 10] (H-NMDMRCSASVECKQKCKDAIGSIFGKCMNKKCKCYPR-OH; disulfide 6-27, 12-32, 16-34) yielded a pIC50 of 9.24. Molecule `CC[C@H](C)[C@@H]1NC(=O)[C@H](C)NC(=O)[C@H](CCCCN)NC(=O)[C@H](CC(C)C)NC(=O)[C@@H]2CSSC[C@@H](C(=O)N[C@@H](Cc3ccc(O)cc3)C(=O)N3CCC[C@H]3C(=O)N[C@@H](CCCNC(=N)N)C(=O)O)NC(=O)[C@H](CCCCN)NC(=O)[C@@H]3CSSC[C@H](NC(=O)[C@H](CCC(=O)O)NC(=O)[C@H](C(C)C)NC(=O)[C@H](CO)NC(=O)[C@H](C)NC(=O)[C@H](CO)NC(=O)[C@@H](NC(=O)[C@H](CCCNC(=N)N)NC(=O)[C@H](CCSC)NC(=O)[C@H](CC(=O)O)NC(=O)[C@H](CCSC)NC(=O)[C@H](CC(N)=O)NC(=O)CNC(=O)CN)CSSC[C@H](NC(=O)[C@H](CCCCN)NC(=O)CNC(=O)[C@H](Cc4ccccc4)NC(=O)[C@H]([C@@H](C)CC)NC(=O)[C@H](CO)NC(=O)CNC1=O)C(=O)N[C@@H](CCSC)C(=O)N[C@@H](CC(N)=O)C(=O)N[C@@H](CCCCN)C(=O)N[C@@H](CCCCN)C(=O)N3)C(=O)N[C@@H](CCCCN)C(=O)N[C@@H](CCC(N)=O)C(=O)N[C@@H](CCCCN)C(=O)N2` [Compound 11] (H-GGNMDMRCSASVECKQKCLKAIGSIFGKCMNKKCKCYPR-OH; disulfide 8-29, 14-34, 18-36) has a pIC50 of 9.52. For `CC[C@H](C)[C@@H]1NC(=O)[C@H](C)NC(=O)[C@H](CCCCN)NC(=O)[C@H](CC(C)C)NC(=O)[C@@H]2CSSC[C@@H](C(=O)N[C@@H](Cc3ccc(O)cc3)C(=O)N3CCC[C@H]3C(=O)N[C@@H](CCCNC(=N)N)C(=O)O)NC(=O)[C@H](CCCCN)NC(=O)[C@@H]3CSSC[C@H](NC(=O)[C@H](CCC(=O)O)NC(=O)[C@H](C(C)C)NC(=O)[C@H](CO)NC(=O)[C@H](C)NC(=O)[C@H](CO)NC(=O)[C@@H](NC(=O)[C@H](CCCNC(=N)N)NC(=O)[C@H](CCSC)NC(=O)[C@H](CC(=O)O)NC(=O)[C@H](CCSC)NC(=O)[C@H](CC(N)=O)NC(=O)CNC(=O)[C@@H](N)CO)CSSC[C@H](NC(=O)[C@H](CCCCN)NC(=O)CNC(=O)[C@H](Cc4ccccc4)NC(=O)[C@H]([C@@H](C)CC)NC(=O)[C@H](CO)NC(=O)CNC1=O)C(=O)N[C@@H](CCSC)C(=O)N[C@@H](CC(N)=O)C(=O)N[C@@H](CCCCN)C(=O)N[C@@H](CCCCN)C(=O)N3)C(=O)N[C@@H](CCCCN)C(=O)N[C@@H](CCC(N)=O)C(=O)N[C@@H](CCCCN)C(=O)N2` [Compound 13] (H-SGNMDMRCSASVECKQKCLKAIGSIFGKCMNKKCKCYPR-OH; disulfide 8-29, 14-34, 18-36), the pIC50 was 9.59. `CCCC[C@H](NC(=O)[C@@H](N)CC(N)=O)C(=O)N[C@@H](CC(=O)O)C(=O)N[C@@H](CCSC)C(=O)N[C@@H](CCCNC(=N)N)C(=O)N[C@H]1CSSC[C@@H]2NC(=O)[C@H](CCCCN)NC(=O)CNC(=O)[C@H](Cc3ccccc3)NC(=O)[C@H]([C@@H](C)CC)NC(=O)[C@H](CO)NC(=O)CNC(=O)[C@H]([C@@H](C)CC)NC(=O)[C@H](C)NC(=O)[C@H](CCCCN)NC(=O)[C@H](CC(C)C)NC(=O)[C@@H]3CSSC[C@@H](C(=O)N[C@@H](Cc4ccc(O)cc4)C(=O)N4CCC[C@H]4C(=O)N[C@@H](CCCNC(=N)N)C(N)=O)NC(=O)[C@H](CCCCN)NC(=O)[C@H](CSSC[C@H](NC(=O)[C@H](CCC(=O)O)NC(=O)[C@H](C(C)C)NC(=O)[C@H](CO)NC(=O)[C@H](C)NC(=O)[C@H](CO)NC1=O)C(=O)N[C@@H](CCCCN)C(=O)N[C@@H](CCC(N)=O)C(=O)N[C@@H](CCCCN)C(=O)N3)NC(=O)[C@H](CCCCN)NC(=O)[C@H](CCCCN)NC(=O)[C@H](CC(N)=O)NC(=O)[C@H](CCSC)NC2=O` [Compound 14] (H-N[Nle]DMRCSASVECKQKCLKAIGSIFGKCMNKKCKCYPR-NH2; disulfide 6-27, 12-32, 16-34) was tested, and the pIC50 was 9.80.
